In patent publication US9951314B2, “Differentiation of human embryonic stem cells” (Janssen Biotech, Inc., priority 2010, dated 2018):

Columns and labels:
[1] = tested on: human embryonic stem (hES) cell line H1; settings: MCDB-131 with 3.7 g/l versus 1 g/l bicarbonate
Protocol: Cells of the human embryonic stem (hES) cell line H1 at passage 46 (p46) were seeded as cell colonies to [sequence] (1:30 dilution) coated dishes at a 1 to 3 passage ratio by lifting cells with Dispase (Catalog #17105-041, Invitrogen, CA) and plating the cells in MEF-CM with 20 ng/ml of FGF2. The media was changed daily with fresh MEF-CM with 20 ng/ml of FGF2, until initiation of differentiation into definitive endoderm (DE) as follows: • a. MCDB-131 (Catalog #10372-019, Invitrogen, CA) medium supplemented with 2% fatty acid-free BSA (Catalog #68700, Proliant, IA), 1× GlutaMax™ (Catalog #35050-079, Invitrogen, Ca) and 100 ng/ml activin A (R&D Systems, MN) plus 20 ng/ml WNT-3a (Catalog #1324-WN-002, R&D Systems, MN) for one day, followed by treatment with MCDB-131 supplemented with 2% BSA, GlutaMax™, and 100 ng/ml activin A each day for an additional three days; or • b.
At day 4, samples were collected for FACS and gene expression analysis using real-time PCR, and counted by ViaCount® (Guava®, Millipore, Billerica, Mass.).

[2] = tested on: human embryonic stem cell line H1; assay: Differentiation of H1 cells to definitive endoderm in MCDB-131 with added glucose; FACS, real-time PCR, ViaCount at day 4 (Example 2); type: cell-based
Protocol: Cells of the human embryonic stem cell line H1 at passage 41 (p41) were lifted by TrypLE (Catalog #12604-013, Invitrogen, CA) and seeded as single cells at a density of 100,000 cells/cm^2 on MATRIGEL® coated dishes (1:30 dilution) in MEF-CM (mouse embryonic fibroblast conditioned media) supplemented with 20 ng/ml of FGF2 (Catalog #100-18B, PeproTech, NJ) and 10 μM of Y-27632 (a Rho Kinase Inhibitor, Catalog #Y0503, Sigma, MO). […] The cultures were differentiated into cells expressing markers characteristic of the definitive endoderm lineage 72 hrs post as follows: • a. […] MCDB-131 medium supplemented with 2% BSA, sodium bicarbonate, GlutaMax™, 100 ng/ml activin A, and either 0, 5, 10, 15, 20, or 25 mM of glucose for an additional three days.
However, these increases in cell number and CXCR4 were offset by a reduction in total cell viability (FIG. 2B).
These clustered cells were subsequently less evenly dispersed on the culture surface than populations of cells cultured in the basal level of glucose.

[3] = tested on: human embryonic stem cell line H1; assay: Differentiation of H1 cells to definitive endoderm in DMEM with low or high glucose; flow cytometry and qRT-PCR (Example 2); type: cell-based; settings: for cells positive for CXCR4: flow cytometry
Protocol: Similar glucose related effects on differentiation were also observed in cultures differentiated with DMEM containing either 5.5 mM (low) or 25 mM (high) glucose concentration (Cat #s 10567-014 and 21063-029, Invitrogen, CA). As described above, for controls, cells were seeded as single cells, cultured 3 days in MEF conditioned media and differentiated in MCDB-131 with 5.5 mM or 25 mM glucose supplemented media, or in DMEM high or low glucose media supplemented with 2% fatty acid free BSA, 100 ng/ml activin A, and 20 ng/ml WNT-3a on the first day, and 2% fatty acid free BSA and 100 ng/ml activin A for the next three days with daily media change. Similar to results with MCDB-131 media, where elevated glucose inhibits definitive endoderm formation as compared to low glucose media treated cells, we observed that a high glucose concentration in DMEM reduced hES cell differentiation. By flow cytometry, following differentiation to definitive endoderm, 88.6% of cells were positive for CXCR4 in media containing 5.5 mM glucose versus 80% CXCR4 positive cells in media containing 25 mM glucose. Additionally, markers of differentiation to definitive endoderm as measured by qRT-PCR (SOX17) were decreased while markers of undifferentiated cells (OCT4) or alternative differentiation fates (CDX2) were increased (FIG. 5) in cells fed media containing high glucose versus those fed low glucose media. This effect was due at least in part to the pH of the media as we noted that over the four day differentiation, media pH dropped after 48 hours of differentiation day. Furthermore, the higher the starting and ending pH of culture media (8.1>pH>7.6) (FIG. 6) during definitive endoderm formation, the more complete the conversion to definitive endoderm.

[4] = increased glucose concentration, clustered cells, real-time PCR
[5] = high glucose versus low glucose media

Structure (SMILES)	CD9 expression levels [1]	CXCR4 expression [1]	CXCR4 expression ([2]; additional 5 mM glucose (10.5 mM final), MCDB-131, day 4)	cell number ([2]; additional 10 mM glucose (15.5 mM final), MCDB-131, day 4)	SOX17 positive cells ([2]; basal level of glucose (5.5 mM), MCDB-131)	CD9 expression [2, 4]	MNX1 (HLXB9) gene expression [2, 4]	OCT4 expression [2, 4]	SOX7 expression [2, 4]	total cell viability ([2]; supplemented glucose (10.5 to 15.5 mM final), MCDB-131, day 4)	CDX2 expression (qRT-PCR) [3, 5]	OCT4 expression (qRT-PCR) [3, 5]	SOX17 expression (qRT-PCR) [3, 5]	cells positive for CXCR4 ([3]; media containing 5.5 mM glucose) [%]	cells positive for CXCR4 ([3]; media containing 25 mM glucose) [%]
O=C([O-])O.[Na+] [Sodium Bicarbonate]	lower	significantly higher	–	–	–	–	–	–	–	–	–	–	–	–	–
O=C[C@H](O)[C@@H](O)[C@H](O)[C@H](O)CO [glucose]	–	–	modest increase	modest increase	almost every cell in the culture was SOX17 positive	slight increase	decrease	slight increase	slight increase	reduction	increased	increased	decreased	88.6	80
